Values joined by “and” are separate entries in the source; they are usually repeats but may differ in a detail not shown here. Identical values can stand only once.
Experiments:
[1] = xn = mol fraction of the nth substance listed; conditions: 298.15 K, 101 kPa, Liquid, Vibrating tube method
[2] = refractive index (Na D-line) (dimensionless); xn = mol fraction of the nth substance listed; conditions: 298.15 K, 101 kPa, Liquid, Standard Abbe refractometry
[3] = excess molar enthalpy (molar enthalpy of mixing); xn = mol fraction of the nth substance listed; conditions: 298.15 K, 101 kPa, Liquid, Flow calorimetry
[4] = Liquid; for mass density: 101.33 kPa, Vibrating tube method; for vapor or sublimation pressure: Ebulliometric method (Recirculating still)
[5] = refractive index (Na D-line) (dimensionless); conditions: 101.33 kPa, Liquid, Standard Abbe refractometry

CCC(C)(C)O [2-methylbutan-2-ol] + CC(=O)CC(C)C
Conditions | excess molar enthalpy, [3] [kcal/mol] | mass density, [1] | refractive index, [2]
x2 = 0 | – | – | 1.40253
x2 = 0.0598 | – | – | 1.40217
x2 = 0.1012 | 0.106 | 804.47 kg/m3 | –
x2 = 0.1216 | – | – | 1.40156
x2 = 0.2017 | 0.196 | 803 kg/m3 | –
x2 = 0.2171 | – | – | 1.40043
x2 = 0.3013 | 0.263 | 801.45 kg/m3 | –
x2 = 0.4017 | 0.307 | 800.01 kg/m3 and 800 kg/m3 | –
x2 = 0.4095 | – | – | 1.39811
x2 = 0.5008 | 0.327 | 798.73 kg/m3 | –
x2 = 0.5982 | – | – | 1.39615
x2 = 0.6006 | 0.321 | 797.67 kg/m3 | –
x2 = 0.7009 | 0.288 | 796.87 kg/m3 | –
x2 = 0.8017 | 0.227 | 796.33 kg/m3 | –
x2 = 0.8202 | – | – | 1.39439
x2 = 0.9007 | 0.132 | 796.12 kg/m3 | –
x2 = 0.9177 | – | – | 1.39383
x2 = 0.9563 | – | – | 1.39364

CCC(C)O (centres undefined) [butan-2-ol] + CC(=O)CC(C)C
Conditions | refractive index
[2], x2 = 0 | 1.39512

CC(=O)CC(C)C [4-methylpentan-2-one] + CCCCC(CC)CO
Conditions | refractive index
[2], x1 = 1 | 1.39346

CC(=O)CC(C)C [4-methylpentan-2-one] + CCC(C)(C)O
Conditions | refractive index
[2], x1 = 1 | 1.39352

CCC(C)(C)O [2-methylbutan-2-ol]
Conditions | mass density [kg/m3] | refractive index | vapor or sublimation pressure [kPa]
[4], 297.85 K | 805.3 | – | –
[4], 336.04 K | – | – | 19.84
[4], 344.75 K | – | – | 29.94
[4], 351.29 K | – | – | 39.96
[4], 356.6 K | – | – | 49.95
[4], 361.18 K | – | – | 60.05
[4], 365.4 K | – | – | 70.74
[4], 368.07 K | – | – | 78.27
[4], 368.16 K | – | – | 78.09
[4], 368.75 K | – | – | 80.2
[4], 371.97 K | – | – | 90.23
[4], 375.14 K | – | – | 100.74
[4], 375.38 K | – | – | 101.88
[4], 375.53 K | – | – | 102.61
[5], 297.85 K | – | 1.4025 | –
[5], 298.15 K | – | 1.40253 | –

CCCCC(CC)CO (centres undefined) [2-ethyl-1-hexanol] + CC(=O)CC(C)C
Conditions | excess molar enthalpy, [3] | mass density, [1] | refractive index, [2]
x2 = 0 | – | – | 1.42949
x2 = 0.0516 | – | – | 1.42806
x2 = 0.1009 | 0.132 kcal/mol | 826.11 kg/m3 | –
x2 = 0.1017 | – | – | 1.4266
x2 = 0.2001 | 0.236 kcal/mol | 823.29 kg/m3 | –
x2 = 0.2045 | – | – | 1.42351
x2 = 0.3019 | 0.313 kcal/mol | 820.27 kg/m3 | –
x2 = 0.397 | – | – | 1.41723
x2 = 0.4014 | 0.361 kcal/mol | 817.23 kg/m3 | –
x2 = 0.5009 | 0.38 kcal/mol | 813.99 kg/m3 | –
x2 = 0.6018 | 0.371 kcal/mol | 810.67 kg/m3 | –
x2 = 0.605 | – | – | 1.41
x2 = 0.7019 | 0.329 kcal/mol | 807.13 kg/m3 | –
x2 = 0.7986 | – | – | 1.40249
x2 = 0.8009 | 0.258 kcal/mol and 0.257 kcal/mol | 803.8 kg/m3 and 803.62 kg/m3 | –
x2 = 0.9004 | 0.149 kcal/mol | 800.06 kg/m3 | –
x2 = 0.9051 | – | – | 1.39848
x2 = 0.9491 | – | – | 1.39587

CC(=O)CC(C)C [4-methylpentan-2-one] + CCC(C)O
Conditions | excess molar enthalpy, [3] | mass density, [1] | refractive index, [2]
x1 = 0.0502 | – | – | 1.39473
x1 = 0.1005 | – | – | 1.39443
x1 = 0.1009 | 0.161 kcal/mol | 800.64 kg/m3 | –
x1 = 0.2005 | – | – | 1.39392
x1 = 0.2009 | 0.272 kcal/mol | 799.14 kg/m3 | –
x1 = 0.3007 | 0.344 kcal/mol | 798.02 kg/m3 | –
x1 = 0.3998 | – | – | 1.39335
x1 = 0.4015 | 0.384 kcal/mol and 0.385 kcal/mol | 797.16 kg/m3 and 797.13 kg/m3 | –
x1 = 0.5008 | 0.396 kcal/mol | 796.55 kg/m3 | –
x1 = 0.602 | – | – | 1.39309
x1 = 0.6021 | 0.38 kcal/mol | 796.12 kg/m3 | –
x1 = 0.7004 | 0.336 kcal/mol | 795.9 kg/m3 | –
x1 = 0.7988 | – | – | 1.39313
x1 = 0.7998 | 0.262 kcal/mol | 795.84 kg/m3 | –
x1 = 0.8985 | – | – | 1.39325
x1 = 0.8998 | 0.155 kcal/mol | 795.97 kg/m3 | –
x1 = 0.9508 | – | – | 1.39335
x1 = 1 | – | – | 1.39346

CCC(C)O (centres undefined) [butan-2-ol]
Conditions | mass density, 297.83 K [kg/m3] | refractive index, 297.83 K | refractive index, 298.15 K | vapor or sublimation pressure, 358.16 K [kPa] | vapor or sublimation pressure, 367.97 K | vapor or sublimation pressure, 372.43 K [kPa] | vapor or sublimation pressure, 372.71 K [kPa]
[4] | 802.7 | – | – | 57.27 | 84.94 kPa and 85.16 kPa | 100.62 | 101.88
[5] | – | 1.3951 | 1.39512 | – | – | – | –

CC(=O)CC(C)C [4-methylpentan-2-one]
Conditions | mass density [kg/m3] | refractive index | vapor or sublimation pressure [kPa]
[4], 297.84 K | 796.4 | – | –
[4], 340.18 K | – | – | 19.35
[4], 340.66 K | – | – | 19.78
[4], 343.42 K | – | – | 21.92
[4], 351.55 K | – | – | 30.01
[4], 352.71 K | – | – | 31.12
[4], 353.11 K | – | – | 31.71
[4], 359.22 K | – | – | 39.35
[4], 359.39 K | – | – | 39.63
[4], 359.58 K | – | – | 40.05
[4], 362.88 K | – | – | 44.7
[4], 365.9 K | – | – | 49.68
[4], 366.61 K | – | – | 50.66
[4], 368.06 K | – | – | 53.01
[4], 368.07 K | – | – | 53.42
[4], 368.14 K | – | – | 53.26
[4], 368.15 K | – | – | 53.24
[4], 368.7 K | – | – | 54.29
[4], 371.34 K | – | – | 59.43
[4], 371.64 K | – | – | 59.75
[4], 371.91 K | – | – | 60.19
[4], 374.37 K | – | – | 65.18
[4], 376.26 K | – | – | 69.16
[4], 376.49 K | – | – | 69.98
[4], 378.8 K | – | – | 74.83
[4], 380.65 K | – | – | 79.56
[4], 381.06 K | – | – | 80.16
[4], 382.66 K | – | – | 84.16
[4], 384.99 K | – | – | 90.58
[4], 388.07 K | – | – | 98.7
[4], 388.31 K | – | – | 99.4
[4], 388.63 K | – | – | 100.35
[4], 388.65 K | – | – | 100.41
[4], 389.06 K | – | – | 101.85
[4], 389.49 K | – | – | 102.78
[5], 297.84 K | – | 1.3935 | –
[5], 298.15 K | – | 1.39346 and 1.39352 | –

CCCCC(CC)CO (centres undefined) [2-ethyl-1-hexanol]
Conditions | mass density [kg/m3] | refractive index | vapor or sublimation pressure [kPa]
[4], 297.86 K | 828.8 | – | –
[4], 389.76 K | – | – | 9.88
[4], 407.11 K | – | – | 19.88
[4], 418.24 K | – | – | 30.03
[4], 426.95 K | – | – | 39.67
[4], 430.79 K | – | – | 45.05
[4], 433.51 K | – | – | 49.22
[4], 437.24 K | – | – | 55.52
[4], 439.49 K | – | – | 59.61
[4], 442.12 K | – | – | 64.64
[4], 445 K | – | – | 70.55
[4], 447.04 K | – | – | 75.01
[4], 449.02 K | – | – | 79.55
[4], 451.06 K | – | – | 84.49
[4], 456.77 K | – | – | 99.44
[4], 457.83 K | – | – | 102.2
[4], 458.23 K | – | – | 102.91
[4], 458.24 K | – | – | 103.26
[5], 297.86 K | – | 1.4295 | –
[5], 298.15 K | – | 1.42949 | –
